From patent US11974991B1, “Adenosine receptor activity of methyl/ethyl 3-(substituted benzoyl)-6,8-dimethylindolizine-2-substituted-1-carboxylates” (KING FAISAL UNIVERSITY, priority 2023, dated 2024)
Like-named read-outs stand apart in the source and are kept apart here.

Columns and labels:
human A3R = human A3R (Homo sapiens (Human), UniProt P0DMS8); experiment: Displacement of specific [3H]-HEMADO binding at human A3R expressed in CHO cells
From the text: (§1) Table 1 below reports the affinity and antagonist values of compounds KNV1-KNV13. In particular, the binding affinity is expressed in Ki and the antagonistic activity in IC50.

human A1R = human A1R (Homo sapiens (Human), UniProt P30542); experiment: Displacement of specific [3H]-CCPA binding at human A1R expressed in CHO cells; conditions: for Ki: [3H]-CCPA displacement, CHO cells, means ± SE, read-out: hA1R (Ki nM)
human A1R, sequence (P30542 whole entry): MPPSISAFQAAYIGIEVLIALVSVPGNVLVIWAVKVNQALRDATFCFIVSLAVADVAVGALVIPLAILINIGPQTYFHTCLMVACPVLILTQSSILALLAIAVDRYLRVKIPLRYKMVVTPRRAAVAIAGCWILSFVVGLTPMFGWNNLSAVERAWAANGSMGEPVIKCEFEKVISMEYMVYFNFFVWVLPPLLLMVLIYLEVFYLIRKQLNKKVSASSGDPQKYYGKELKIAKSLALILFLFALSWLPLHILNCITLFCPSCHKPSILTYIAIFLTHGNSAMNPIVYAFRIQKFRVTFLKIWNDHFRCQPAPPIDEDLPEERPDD
From the text: as §1

hA3R = hA3R (Homo sapiens (Human), UniProt P0DMS8); experiment: Counteracting NECA-induced decrease of cAMP accumulation (GloSensor cAMP assay) in CHO cells expressing hA3R; type: cell-based
hA3R, sequence (P0DMS8 whole entry): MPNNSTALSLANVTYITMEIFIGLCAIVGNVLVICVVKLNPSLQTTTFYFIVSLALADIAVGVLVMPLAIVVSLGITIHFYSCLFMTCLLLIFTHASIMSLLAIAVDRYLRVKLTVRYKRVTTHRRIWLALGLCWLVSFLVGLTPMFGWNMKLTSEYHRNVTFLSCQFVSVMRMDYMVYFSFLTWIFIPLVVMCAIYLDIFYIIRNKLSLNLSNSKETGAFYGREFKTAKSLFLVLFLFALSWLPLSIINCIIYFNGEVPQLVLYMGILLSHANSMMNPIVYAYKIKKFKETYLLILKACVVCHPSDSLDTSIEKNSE
Method: (§2) The activity of the present compounds was evaluated using the GloSensor™ cAMP assay, which is a new non-radioactive method offering a simple approach to monitor GPCR activity through changes in the intracellular cAMP concentration. This assay uses a mutant form of Photinus pyralis luciferase into which a cAMP-binding protein moiety has been inserted. The binding with cAMP triggers a biosensor conformational change that leads to an increase of light output allowing to evaluate the activity of ligands at the receptor under study. Following pre-equilibration with a substrate, cells stably expressing both the receptor of interest and the biosensor can be used to evaluate GPCR function enabling easy kinetic measurements of cAMP accumulation or turnover in living cells.
The antagonist profile of the compounds on A3AR was studied by assessing their ability to counteract the NECA-induced decrease of cAMP accumulation. After 2 hrs of equilibration in reaction medium the cells were incubated in a 384 well plate (10 min at room temperature) with 3 μl of different antagonist concentrations and then treated with 3 μl of a fixed dose of agonist. 1 μl of Forskolin 500 μM, final concentration 10 μM, were added 10 minutes after agonist and various luminescence reads were performed at different incubation times.

hA2BR = hA2BR (Homo sapiens (Human), UniProt P29275); experiment: Inhibition of NECA-stimulated adenylyl cyclase activity / cAMP accumulation (GloSensor cAMP assay) in CHO cells expressing hA2BR; type: cell-based; conditions: for IC50: inhibiting NECA-stimulated adenylyl cyclase activity, CHO cells, means ± SE
hA2BR, sequence (P29275 whole entry): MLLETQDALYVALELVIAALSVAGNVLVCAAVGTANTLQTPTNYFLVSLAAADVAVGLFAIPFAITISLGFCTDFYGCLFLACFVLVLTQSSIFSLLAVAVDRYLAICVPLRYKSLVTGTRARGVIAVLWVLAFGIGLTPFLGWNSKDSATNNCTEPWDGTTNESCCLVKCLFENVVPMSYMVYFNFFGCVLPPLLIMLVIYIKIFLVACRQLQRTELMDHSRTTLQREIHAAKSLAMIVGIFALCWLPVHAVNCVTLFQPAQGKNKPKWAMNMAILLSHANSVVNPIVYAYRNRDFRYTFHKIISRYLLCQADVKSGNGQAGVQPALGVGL
Method: as §2
The antagonist profile of the compounds on A2BAR was evaluated by assessing their ability to counteract the agonist NECA-induced increase of cAMP accumulation. After 2 hrs of equilibration in reaction medium cells were incubated in 384 well plate (10 min at room temperature) with 3 μl of different antagonist concentrations and then treated with 3 μl of a fixed dose of NECA. After further 10 minutes of incubation various luminescence reads were performed at different incubation times.

human A2AR = human A2AR (Homo sapiens (Human), UniProt P29274); experiment: Displacement of specific [3H]-NECA binding at human A2AR expressed in CHO cells; conditions: for Ki: [3H]-NECA displacement, CHO cells, means ± SE, read-out: hA2AR (Ki nM)
human A2AR, sequence (P29274 whole entry): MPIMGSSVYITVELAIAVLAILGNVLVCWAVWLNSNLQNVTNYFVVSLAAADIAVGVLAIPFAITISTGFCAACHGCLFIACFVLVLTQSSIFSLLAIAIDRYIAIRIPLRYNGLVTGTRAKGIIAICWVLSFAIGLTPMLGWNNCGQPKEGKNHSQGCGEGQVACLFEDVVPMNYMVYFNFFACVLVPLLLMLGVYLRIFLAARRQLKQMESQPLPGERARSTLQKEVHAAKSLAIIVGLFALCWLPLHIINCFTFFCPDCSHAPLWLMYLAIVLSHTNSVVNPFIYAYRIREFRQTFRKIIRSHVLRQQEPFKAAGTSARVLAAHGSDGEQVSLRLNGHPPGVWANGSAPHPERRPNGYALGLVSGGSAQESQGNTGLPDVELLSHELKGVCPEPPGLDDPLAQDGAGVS
From the text: as §1

[1] = [3H]-HEMADO displacement, CHO cells, means ± SE, read-out: hA3R (Ki nM)
[2] = counteracting NECA-induced decrease of cAMP accumulation, CHO cells expressing hA3R, means ± SE, read-out: hA2AR (IC50 nM) [footnote e: hA3R]

human A3R, sequence (P0DMS8 whole entry): as the sequence (P0DMS8 whole entry) above

| Ki (human A3R; [1]) [nM] | Ki (human A1R) [nM] | IC50 (hA3R; [2]) [nM] | IC50 (hA2BR) [nM] | Ki (human A2AR) [nM] | Ki (human A3R; unit inferred, read-out: Ki towards A3AR) [nM] | activity in the other subtypes (A1) (human A1R) | IC50 (hA3R; unit inferred, read-out: IC50, antagonistic activity on A3AR) [nM] | activity in the other subtypes (A2B) (hA2BR) | activity in the other subtypes (A2A) (human A2AR) | Compound |
| --- | --- | --- | --- | --- | --- | --- | --- | --- | --- | --- |
| 591 ± 112 | > 30000 | 1510 ± 351 | > 30000 | > 30000 | – | – | – | – | – | CCOC(=O)c1cc(C(=O)c2ccc(Cl)cc2)n2cc(C)cc(C)c12 [KNV1, Ethyl 3-(4-chlorobenzoyl)-6,8-dimethylindolizine-1-carboxylate] |
| 1910 ± 45 | 1330 ± 217 | 7900 ± 1080 | > 30000 | 4820 ± 243 | – | – | – | – | – | COC(=O)c1c(C(=O)OC)c2c(C)cc(C)cn2c1C(=O)c1ccc(OC)cc1 [KNV2, Dimethyl 3-(4-methoxybenzoyl)-6,8-dimethylindolizine-1,2-dicarboxylate] |
| 2160 ± 468 | 6980 ± 330 | 9580 ± 1080 | > 30000 | 5540 ± 998 | – | – | – | – | – | COC(=O)c1c(C(=O)OC)c2c(C)cc(C)cn2c1C(=O)c1ccc(Br)cc1 [KNV4, Dimethyl 3-(4-bromobenzoyl)-6,8-dimethylindolizine-1,2-dicarboxylate] |
| 930 ± 159 | > 30000 | 3420 ± 879 | > 30000 | 7970 ± 1660 | – | – | – | – | – | CCOC(=O)c1cc(C(=O)c2ccccc2[N+](=O)[O-])n2cc(C)cc(C)c12 [KNV6, Ethyl 6,8-dimethyl-3-(2-nitrobenzoyl)indolizine-1-carboxylate] |
| 1070 ± 157 | > 30000 | 4210 ± 1150 | > 30000 | 4970 ± 508 | – | – | – | – | – | CCOC(=O)c1cc(C(=O)c2ccc(C)cc2)n2cc(C)cc(C)c12 [KNV7, Ethyl 6,8-dimethyl-3-(4-methylbenzoyl)indolizine-1-carboxylate] |
| 3090 ± 6 | 2390 ± 171 | 11000 ± 2050 | > 30000 | 1609 ± 13 | – | – | – | – | – | COC(=O)c1c(C(=O)OC)c2c(C)cc(C)cn2c1C(=O)c1ccc(C)cc1 [KNV8, Dimethyl 6,8-dimethyl-3-(4-methylbenzoyl)indolizine-1,2-dicarboxylate] |
| 305 ± 57 | > 30000 | 865 ± 105 | > 30000 | > 30000 | – | – | – | – | – | CCOC(=O)c1cc(C(=O)c2ccc(OC)cc2)n2cc(C)cc(C)c12 [KNV9, Ethyl 3-(4-methoxybenzoyl)-6,8-dimethylindolizine-1-carboxylate] |
| 924 ± 127 | 5610 ± 1080 | 4210 ± 521 | > 30000 | 6880 ± 705 | – | – | – | – | – | COC(=O)c1c(C(=O)OC)c2c(C)cc(C)cn2c1C(=O)c1ccc(Cl)cc1 [KNV10, Dimethyl 3-(4-chlorobenzoyl)-6,8-dimethylindolizine-1,2-dicarboxylate] |
| 8540 ± 1500 | > 30000 | 25900 ± 4200 | > 30000 | > 30000 | – | – | – | – | – | CCOC(=O)c1cc(C(=O)c2ccc(C#N)cc2)n2cc(C)cc(C)c12 [KNV11, Ethyl 3-(4-cyanobenzoyl)-6,8-dimethylindolizine-1-carboxylate] |
| 12100 ± 1700 | > 30000 | 41100 ± 9220 | > 30000 | > 30000 | – | – | – | – | – | COC(=O)c1c(C(=O)OC)c2c(C)cc(C)cn2c1C(=O)c1ccc(C#N)cc1 [KNV12, Dimethyl 3-(4-cyanobenzoyl)-6,8-dimethylindolizine-1,2-dicarboxylate] |
| 7140 ± 130 | > 30000 | 28000 ± 5220 | > 30000 | > 30000 | – | – | – | – | – | CCOC(=O)c1cc(C(=O)c2cc(C(F)(F)F)cc(C(F)(F)F)c2)n2cc(C)cc(C)c12 [KNV13, Ethyl 3-(3,5-bis(trifluoromethyl)benzoyl)-6,8-dimethylindolizine-1-carboxylate] |
| > 30000 | > 30000 | > 30000 | > 30000 | > 30000 | – | – | – | – | – | Ethyl 3-(4-bromobenzoyl)-6,8-dimethylindolizine-1-carboxylate [KNV3] |
| 213 ± 16 | > 30000 | 196 ± 55 | > 30000 | > 30000 | 213 | not active | 196 | not active | not active | Ethyl 3-(4-fluorobenzoyl)-6,8-dimethylindolizine-1-carboxylate [KNV5] |
